Columns and labels:
[1] = tested on: RXR; experiment: RXR transactivation test; type: cell-based; conditions: for RXR transactivation test (%): tested compound at 10 μM, relative to control 6-[1-(3,5,5,8,8-pentamethyl-5,6,7,8-tetrahydronaphthalen-2-yl)cyclopropyl]nicotinic acid at 10^-8 M; for AC50: read-out: RXR transactivation AC 50
Method: We further tested compounds according to the claimed invention to ascertain their activity in assays that identify molecules as RXR-agonists. […] These references are incorporated by reference in their entirety herein.
The percentage values in the Table correspond to the percentage of activities of the tested compound at a concentration of 10 μM. This is relative to a control compound, 6-[1-(3,5,5,8,8-pentamethyl-5,6,7,8-tetrahydronaphthalen-2-yl)cyclopropyl]nicotinic acid, at a concentration of 10^-8 M.

[2] = biological target: RXR; experiment: RXR binding

CC1(C)CCC(C)(C)c2cc([S+]([O-])c3ccc(C(=O)O)cc3)ccc21 (centres unmarked) [Example 3, 4-(5,6,7,8-tetrahydro-5,5,8,8-tetramethyl-2-naphthylsulfinyl)benzoic acid]
RXR transactivation test (%) [1]: 25%

CC1(C)CCC(C)(C)c2cc(Oc3ccc(C(=O)O)cc3)ccc21 [Example 1, 4-(5,6,7,8-tetrahydro-5,5,8,8-tetramethyl-2-naphthyloxy)benzoic acid]
RXR transactivation test (%) [1]: 33%

CC1(C)CCC(C)(C)c2cc(Nc3ccc(C(=O)O)cc3)ccc21 [Example 5, 4-(5,6,7,8-tetrahydro-5,5,8,8-tetramethyl-2-naphthylamino)benzoic acid]
RXR transactivation test (%) [1]: 21%

CC1(C)CCC(C)(C)c2cc(Sc3ccc(C(=O)O)s3)ccc21 [Example 6, 5-(5,6,7,8-tetrahydro-5,5,8,8-tetramethyl-2-naphthylthio)-2-thiophenecarboxylic acid]
RXR transactivation test (%) [1]: 39%

CCc1cc2c(cc1Oc1ccc(C(=O)O)cc1C)C(C)(C)CCC2(C)C [Example 16, 3-methyl-4-(3-ethyl-5,6,7,8-tetrahydro-5,5,8,8-tetramethyl-2-naphthyloxy)benzoic acid]
RXR transactivation test (%) [1]: 38%

Cc1cc2c(cc1Sc1ccc(C=O)cc1)C(C)(C)CCC2(C)C [Example 24, 4-(3,5,5,8,8-pentamethyl-5,6,7,8-tetrahydro-2-naphthylthio)benzaldehyde]
RXR transactivation test (%) [1]: 17%

CCNC(=O)c1ccc(Sc2cc3c(cc2C)C(C)(C)CCC3(C)C)cc1 [Example 25, N-ethyl-4-(3,5,5,8,8-pentamethyl-5,6,7,8-tetrahydro-2-naphthylthio)benzamide]
RXR transactivation test (%) [1]: 15%

CC1(C)CCC(C)(C)c2cc(Oc3ccc(C(=O)O)cc3)c(Br)cc21 [Example 13, 4-(3-bromo-5,6,7,8-tetrahydro-5,5,8,8-tetramethyl-2-naphthyloxy)benzoic acid]
Ki [2]: 1130 nM
RXR transactivation test (%) [1]: 57%

Cc1cc2c(cc1Sc1ccc(C(=O)O)cc1)C(C)(C)CCC2(C)C [Example 8, 4-(3,5,5,8,8-pentamethyl-5,6,7,8-tetrahydro-2-naphthylthio)benzoic acid]
Ki [2]: 3740 nM
AC50 [1]: 300 nM
RXR transactivation test (%) [1]: 118%

CCc1cc2c(cc1Sc1ccc(C(=O)O)cc1)C(C)(C)CCC2(C)C [Example 20, 4-(3-ethyl-5,6,7,8-tetrahydro-5,5,8,8-tetramethyl-2-naphthylthio)benzoic acid]
Ki [2]: 3950 nM
RXR transactivation test (%) [1]: 41%

Cc1cc2c(cc1Sc1ccc(C(=O)O)c(Cl)c1)C(C)(C)CCC2(C)C [Example 19, 2-chloro-4-(3,5,5,8,8-pentamethyl-5,6,7,8-tetrahydro-2-naphthylthio)benzoic acid]
AC50 [1]: 656 nM
RXR transactivation test (%) [1]: 58%

Cc1cc2c(cc1Oc1ccc(C(=O)O)cc1)C(C)(C)CCC2(C)C [Example 7, 4-(3,5,5,8,8-pentamethyl-5,6,7,8-tetrahydro-2-naphthyloxy)benzoic acid]
AC50 [1]: 355 nM
RXR transactivation test (%) [1]: 48%

CCc1cc2c(cc1Oc1ccc(C(=O)O)cc1)C(C)(C)CCC2(C)C [Example 9, 4-(3-ethyl-5,5,8,8-tetramethyl-5,6,7,8-tetrahydro-2-naphthyloxy)benzoic acid]
Ki [2]: 2820 nM
AC50 [1]: 279 nM
RXR transactivation test (%) [1]: 108%

Cc1cc2c(cc1Sc1ccc(C(=O)O)cn1)C(C)(C)CCC2(C)C [Example 17, 6-(3,5,5,8,8-pentamethyl-5,6,7,8-tetrahydro-2-naphthylthio)nicotinic acid]
Ki [2]: 538 nM
AC50 [1]: 48 nM
RXR transactivation test (%) [1]: 102%

Cc1cc2c(cc1Sc1ccc(C(=O)Nc3ccc(O)cc3)cc1)C(C)(C)CCC2(C)C [Example 26, N-4-hydroxyphenyl-4-(3,5,5,8,8-pentamethyl-5,6,7,8-tetrahydro-2-naphthylthio)benzamide]
RXR transactivation test (%) [1]: 14%

CC(C)c1cc2c(cc1Oc1ccc(C(=O)O)cc1)C(C)(C)CCC2(C)C [Example 10, 4-(3-isopropyl-5,5,8,8-tetramethyl-5,6,7,8-tetrahydro-2-naphthyloxy)benzoic acid]
Ki [2]: 2480 nM
AC50 [1]: 495 nM
RXR transactivation test (%) [1]: 81%

Cc1cc2c(cc1Sc1ccc(CO)cc1)C(C)(C)CCC2(C)C [Example 23, 4-(3,5,5,8,8-pentamethyl-5,6,7,8-tetrahydro-2-naphthylthio)benzenemethanol]
RXR transactivation test (%) [1]: 3%

From US6162815A, “RXR-agonist polycyclic aromatic compounds, pharmaceutical/cosmetic compositions comprising said compound and uses thereof” (Centre International de Recherches Dermatologiques Galderma, priority 1994, dated 2000)
